Measurements reported in US6015809A (priority 1999, dated 2000).
Converted amounts (≈) assume the structure as drawn.

Key:
Type in all cases: cell-based
Aspergillus fumigatus = assay: Antifungal activity, MIC microdilution; settings: strain ATCC 26933; RPMI 1640, 35° C., 24-48 hours
Procedure: (§1) Antifungal activity for the compounds of this invention was established by evaluating a representative compound of this invention (Compound I) against several strains of fungi. Briefly the following procedure was used to evaluate such activity. A 96 U-bottom microtiter plate was filled (50 μl/well) with RPMI 1640. The compounds to be evaluated were placed in appropriate wells, and serial diluted in successive wells to provide 11 dilutions. The concentrations ranged from 64 through 0.06 μg/ml. An adjusted inoculum of fungi (50 μl) was added to each well and the plates were incubated at 35° C. for 24-48 hours.

Candida krussii = assay: Antifungal activity, MIC microdilution; settings: strain 94-2; RPMI 1640, 35° C., 24-48 hours
Procedure: as §1

[1] = system: Filobasidiella neoformans; assay: Antifungal activity, MIC microdilution; settings: strain ATCC 7472; RPMI 1640, 35° C., 24-48 hours
Procedure: as §1

Candida parapsilosis = assay: Antifungal activity, MIC microdilution; settings: RPMI 1640, 35° C., 24-48 hours
Procedure: as §1

Cryptococcus neoformans = assay: Antifungal activity, MIC microdilution; settings: strain ATCC 90112; RPMI 1640, 35° C., 24-48 hours
Procedure: as §1

Candida tropicalis = assay: Antifungal activity, MIC microdilution; settings: RPMI 1640, 35° C., 24-48 hours
Procedure: as §1

Candida glabrata = assay: Antifungal activity, MIC microdilution; settings: strain ATCC 90030; RPMI 1640, 35° C., 24-48 hours
Procedure: as §1

[2] = system: A431 (vulva epidermoid origin) tumor cells; assay: Antineoplastic activity in vitro, tumor cell growth (sulforhrodamine B); settings: A431, 48 hours
Excerpt: (§2) Antineoplastic activity for the compounds of this invention was established by evaluating the antineoplastic activity of a representative compound of this invention (Compound I) against six tumor cell lines in vitro. Briefly, tumor cells from six cell lines were placed in wells of a 96 well microtiter plate. The following tumor cell lines were used: A2780S (ovarian), A2780DDP (ovarian--resistant to cis-platin), A431 (vulva epidermoid origin), SW620 (colon), SKBR3 (breast), and MDA-MB-435 (breast). The tumors cells were grown in the presence of serial dilutions of the compound to be evaluated for 48 hours, and cell growth determined using a colorimetric procedure (sulforhrodamine B). The inhibition of growth was calculated compared to the number of cells at the time of test compound addition. Results are expressed as an IC50 (μg/ml). […] In particular, the compounds of this invention are useful against solid tumors, including sarcomas and carcinomas; and more particularly against astrocytomas, prostate cancer, breast cancer, colon cancer, small cell lung cancer, and ovarian cancer; and adult T-cell leukemia/lymphoma.

[3] = system: A2780S (ovarian) tumor cells; assay: as above; settings: 48 hours
Excerpt: as §2

[4] = system: SW620 (colon) tumor cells; assay: as above; settings: SW620, 48 hours
Excerpt: as §2

[5] = system: SKBR3 (breast) tumor cells; assay: as above; settings: SKBR3, 48 hours
Excerpt: as §2

[6] = system: MDA-MB-435 (breast) tumor cells; assay: as above; settings: MDA-MB-435, 48 hours
Excerpt: as §2

[7] = system: A2780DDP (ovarian--resistant to cis-platin) tumor cells; assay: as above; settings: 48 hours
Excerpt: as §2

Candida rugosa = assay: Antifungal activity, MIC microdilution; settings: strain 94-10; RPMI 1640, 35° C., 24-48 hours
Procedure: (§3) Briefly the following procedure was used to evaluate such activity. A 96 U-bottom microtiter plate was filled (50 μl/well) with RPMI 1640. The compounds to be evaluated were placed in appropriate wells, and serial diluted in successive wells to provide 11 dilutions. The concentrations ranged from 64 through 0.06 μg/ml. An adjusted inoculum of fungi (50 μl) was added to each well and the plates were incubated at 35° C. for 24-48 hours.

Candida pseudotropicalis = assay: Antifungal activity, MIC microdilution; settings: strain ATCC 28838; RPMI 1640, 35° C., 24-48 hours
Procedure: as §3

Saccharomyces cerevisiae = assay: Antifungal activity, MIC microdilution; settings: strain ATCC 2601; RPMI 1640, 35° C., 24-48 hours
Procedure: as §3

Candida lusitaniae = assay: Antifungal activity, MIC microdilution; settings: strain 94-3; RPMI 1640, 35° C., 24-48 hours
Procedure: as §3

Aspergillus niger = assay: Antifungal activity, MIC microdilution; settings: strain S-430; RPMI 1640, 35° C., 24-48 hours
Procedure: as §3

Candida albicans = assay: Antifungal activity, MIC microdilution; settings: RPMI 1640, 35° C., 24-48 hours
Procedure: as §3

Candida zeylanoided = assay: Antifungal activity, MIC microdilution; settings: strain 94-15; RPMI 1640, 35° C., 24-48 hours
Procedure: as §3

Aspergillus flavus = assay: Antifungal activity, MIC microdilution; settings: strain ATCC 12963; RPMI 1640, 35° C., 24-48 hours
Procedure: as §3

CO[C@H]1C[C@@H]2CC[C@@H](C)[C@@](O)(O2)[C@]2(O)C(=O)N3[C@@H](CCC[C@@H]32)C(=O)O[C@H]([C@H](C)C[C@@H]2CC[C@@H](O)[C@H](OC)C2)CC(=O)[C@H](C)/C=C(\C)[C@@H](O)[C@@H](OC)C(=O)[C@H](C)C[C@H](C)/C=C/C=C/C=C/1C [Compound I, (1S,2R,3R,6S,8S,9E,11E,13E,15S,17R,19R,20R,21E,23R,26S,29S,33R)-1,2,30-Trihydroxy-26-[(1R)-2-[(1S,3R,4R)4-hydroxy-3-methoxycyclohexyl]-1-methylethyl]-8,19-dimethoxy-3,9,15,17,21,23-hexamethyl-27,36-dioxa-35-azatetracyclo[27.4.2.1.[2,6].0[33,35]]hexatriaconta-9,11,13,21-tetraene-18,24,28,34-tetrone]
MIC (Aspergillus fumigatus): ≥ 64 µg/mL
MIC (Candida krussii): ≥ 64 µg/mL
MIC [1]: ≥ 64 µg/mL
MIC (Candida parapsilosis; strain 94-8): 8 µg/mL (≈ 8.75 µM)
MIC (Candida parapsilosis; strain 94-9): 8 µg/mL (≈ 8.75 µM)
MIC (Candida parapsilosis; strain ATCC 90018): 8 µg/mL (≈ 8.75 µM)
MIC (Cryptococcus neoformans): 8 µg/mL (≈ 8.75 µM)
MIC (Candida tropicalis; strain 94-13): 16 µg/mL (≈ 17.5 µM)
MIC (Candida tropicalis; strain 94-14): 8 µg/mL (≈ 8.75 µM)
MIC (Candida glabrata): 8 µg/mL (≈ 8.75 µM)
IC50 (inhibition of growth) [2]: 20.46 µg/mL
IC50 (inhibition of growth) [3]: 8.756 µg/mL
IC50 (inhibition of growth) [4]: 24.84 µg/mL
IC50 (inhibition of growth) [5]: 7.029 µg/mL
IC50 (inhibition of growth) [6]: 27.28 µg/mL
IC50 (inhibition of growth) [7]: 6.51 µg/mL
MIC (Candida rugosa): 16 µg/mL (≈ 17.5 µM)
MIC (Candida pseudotropicalis): 4 µg/mL (≈ 4.38 µM)
MIC (Saccharomyces cerevisiae): 8 µg/mL (≈ 8.75 µM)
MIC (Candida lusitaniae): 4 µg/mL (≈ 4.38 µM)
MIC (Aspergillus niger): ≥ 64 µg/mL
MIC (Candida albicans; strain 94-1): 16 µg/mL (≈ 17.5 µM)
MIC (Candida albicans; strain 1063): 16 µg/mL (≈ 17.5 µM)
MIC (Candida albicans; strain 1117): 32 µg/mL (≈ 35 µM)
MIC (Candida albicans; strain ATCC 90028): 16 µg/mL (≈ 17.5 µM)
MIC (Candida albicans; strain C-83): ≥ 64 µg/mL
MIC (Candida zeylanoided): 8 µg/mL (≈ 8.75 µM)
MIC (Aspergillus flavus): ≥ 64 µg/mL
